The text below walks through data of patent US5952511A, “Indolin-2-one derivatives” (Chugai Seiyaku Kabushiki Kaisha, priority 1993, dated 1999).

The target of assay [1] is T1, CCK-B receptors (rat cerebral cortex) (Rattus norvegicus, UniProt P30553).
T1 construct: Cerebral cortex was minced in the same buffer, and homogenized with Polytron; from tissue; host or cells: cerebral cortex membrane fraction of Sprague-Dawley male rats
T1 sequence (P30553 1-452): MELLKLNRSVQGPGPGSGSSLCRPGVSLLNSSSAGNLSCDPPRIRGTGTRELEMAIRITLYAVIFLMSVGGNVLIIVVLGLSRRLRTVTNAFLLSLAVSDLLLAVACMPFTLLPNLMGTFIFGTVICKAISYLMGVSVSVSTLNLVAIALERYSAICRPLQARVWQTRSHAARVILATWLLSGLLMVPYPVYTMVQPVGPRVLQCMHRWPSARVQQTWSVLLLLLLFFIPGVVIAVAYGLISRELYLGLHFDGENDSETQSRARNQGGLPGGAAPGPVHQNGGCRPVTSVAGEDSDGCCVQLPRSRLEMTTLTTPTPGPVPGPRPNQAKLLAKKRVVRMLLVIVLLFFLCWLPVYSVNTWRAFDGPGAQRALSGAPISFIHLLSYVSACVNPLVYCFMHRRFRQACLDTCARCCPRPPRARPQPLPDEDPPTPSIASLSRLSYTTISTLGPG
Briefly: CCK-B Receptor Binding Test in Rat Cerebral Cortex (Test Example 3). On the set-up: species or system rat (Sprague-Dawley, male). The following applies: inhibition of specific 125I-CCK-8 sulfated binding (15 pM), 25° C., 120 min. As to the method:
CCK-B Receptor Binding Test in Rat Cerebral Cortex
A rat cortical membrane fraction was prepared in accordance with the method of Chang, et al., Proc. Natl. Acad. Sci., U.S.A., 83, 4923 (1986). Sprague-Dawley male rats were sucrified and the brains were removed and immersed in a 50 mM Tris-HCl buffer (pH 7.4) under ice-cooling, and the cortex was dissected. Cerebral cortex was minced in the same buffer, and homogenized with Polytron. The homogenate was centrifuged at 2,500 g, and the supernatant was further centrifuged at 50,000 g. The pellet was resuspended in a reaction buffer solution (10 mM HEPES, 5 mM MgCl2, 1 mM EGTA, 130 mM NaCl; pH 6.5).
To 150 μl of the resulting rat cerebral cortex suspension were added 20 μl of ^125 I-CCK-8 sulfated (final concentration: 15 pM) and 10 μl of a test compound or a solvent (for total binding) or 1 μM CCK-8 sulfated (for nonspecific binding), and the reaction buffer solution was added there to make 1 ml. The reaction mixture was incubated at 25° C. for 120 minutes, followed by filtration through a GF/B filter (produced by Whatman). The radio-activity of the membrane fraction adsorbed onto the filter was measured with a gamma-counter.
The specific binding to CCK-B receptors was obtained from a difference between the total binding and the nonspecific binding. The IC50 of the test compound in inhibition of specific binding was calculated.

The next assay has as its system gastric acid secretion. The assay can be described thus: Inhibitory Activity on Gastric Acid Secretion in Pylorus Ligated Rats (Test Example 2). The class given is in vivo, rat (Sprague-Dawley, male). The following applies: Rattus norvegicus, intraduodenal, i.d., 4 h. As to the method: Inhibitory Activity on Gastric Acid Secretion in Pyrolus Ligated Rats
Sprague-Dawley male rats weighing about 200 g were deprived of food for 24 hours while allowed water ad libitum. The abdomen was opened under anesthesia with ethyl ether, the pyrolus ligated, and the abdomen closed. The rats were deprived of food and water for 4 hours until they were surcrified with ethyl ether. The stomach was removed, and gastric juice was collected and measured. The gastric juice was centrifuged at 3000 rpm, and the supernatant was titrated up to pH 7.0 with 0.1N NaOH solution to obtain the acidity of the gastric juice. The amount of the gastric acid output was calculated by multiplying the gastric juice volume by the acidity, and the percent inhibition of acid secretion was obtained according to the following equation. A test compound, suspended in a 3% gum arabic solution, was administered intraduodenally at a dose of 2 ml/kg immediately after the pyrolus ligation.
Inhibition (%)=[(Average amount of gastric acid output in control group--Average amount of gastric acid output in test group)/Average amount of gastric acid secreted […]]×100

Assay [2] deals with T2, gastrin receptors (guinea pig gastric glands) (Cavia porcellus, UniProt H0VZC5).
T2 construct: The gastric glands were isolated from the tissue with a pipette; from tissue; host or cells: isolated gastric glands from gastric mucosa of Hartley male guinea pigs
T2 sequence (H0VZC5 1-426): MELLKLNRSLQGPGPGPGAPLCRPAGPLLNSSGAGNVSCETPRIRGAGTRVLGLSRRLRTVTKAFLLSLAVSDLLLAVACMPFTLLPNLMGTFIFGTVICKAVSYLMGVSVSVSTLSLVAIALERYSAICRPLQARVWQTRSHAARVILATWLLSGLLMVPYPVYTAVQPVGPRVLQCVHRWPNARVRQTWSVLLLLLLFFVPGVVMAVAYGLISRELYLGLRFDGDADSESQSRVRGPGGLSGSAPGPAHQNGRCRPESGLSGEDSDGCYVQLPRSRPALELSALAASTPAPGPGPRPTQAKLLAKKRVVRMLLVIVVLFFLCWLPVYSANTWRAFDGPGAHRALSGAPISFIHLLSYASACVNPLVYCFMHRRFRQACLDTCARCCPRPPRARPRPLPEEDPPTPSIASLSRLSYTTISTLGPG
Briefly: Gastrin Receptor Binding Test in Guinea Pig Gastric Glands (Test Example 1). The following applies: inhibition of specific 125I-gastrin I human binding (22.5 pM), 25° C., 45 min. Set-up: species or system guinea pig (Hartley, male). The method, then: Gastrin Receptor Binding Test in Guinea Pig Gastric Glands
Preparation of Gastric Glands:
Guinea pig gastric glands were prepared according to the method of Chang, et al., Biochem. Biophys. Res. Commun., 134, 895 (1986). The gastric mucosa of a Hartley male guinea pig was peeled off. After washing, the mucosa was minced with scissors in buffer A (Eagle's MEM containing 2 mM L-glutamine and 25 mM HEPES; pH 7.4). After washing, the minced tissue was incubated in buffer A containing 0.025% collagenase, 0.01% soy bean trypsin inhibitor, and 0.1% BSA at 37° C. for 60 minutes under 95% O2 and 5% CO2. The gastric glands were isolated from the tissue with a pipette, washed twice with buffer A, and filtered through a mesh. Then, the gastric glands were obtained by centrifugation.
Guinea pig gastric glands were resuspended in buffer B (Hank's solution containing 10 mM HEPES and 0.2% BSA; pH 7.4) (10 ml of buffer B per guinea pig).
To 200 μl of the suspension containing the resuspended isolated gastric glands were added 20 μl of ^125 I-gastrin I human (final concentration: 22.5 pM). Then, 10 μl of a test compound or a solvent (for total binding) or 10 μM Pentagastrin (for nonspecific binding), and buffer B was added there to make a total volume of 1 ml. The reaction mixture was incubated at 25° C. for 45 minutes and then centrifuged at 12000 g. The supernatant was removed by suction, and the radioactivity of the isolated gastric glands was measured with a gamma-counter.
The specific binding of gastrin to gastrin receptors was obtained from a difference between the total binding and the nonspecific binding. The IC50 of the test compound in inhibition of specific binding was calculated.

One may read the IC50 as the concentration that gives 50% inhibition. A lower IC50 goes with higher potency. Compound `CCOC(CN1C(=O)C(NC(=O)Nc2ccc(C)cc2)(NC(=O)Nc2ccc(C)cc2)c2ccccc21)OC` (racemic) [Example 7, (RS)-1-(2-Ethoxy-2-methoxyethyl)-3,3-bis(N'-(4-methylphenyl)ureido)indolin-2-one] yielded an IC50 in assay [1] of 0.07 nM.

As for `Cc1ccc(NC(=O)CC2(NC(=O)Nc3ccc(C)cc3)C(=O)N(Cc3ccccc3)c3ccccc32)cc1` (racemic) [Example 62, (RS)-1-Benzyl-3-((4-methylphenyl)aminocarbonylmethyl)-3-(N'-(4-methylphenyl)ureido)indolin-2-one], the IC50 in assay [1] was found to be 1.2 nM.

In assay [1], `Cc1ccc(NC(=O)CC2(NC(=O)Nc3ccc(C)cc3)C(=O)N(Cc3ccccn3)c3ccccc32)cc1` (racemic) [Example 65, (RS)-3-((4-Methylhenyl)aminocarbonylmethyl)-3-(N'-(4-methylphenyl)ureido)-1-(2-pyridylmethyl)indolin-2-one] registered an IC50 of 0.76 nM.

With `Cc1ccc(NC(=O)CC2(NC(=O)Nc3ccc(C)cc3)C(=O)N(CCc3ccccc3)c3ccccc32)cc1` (racemic) [Example 66, (RS)-3-((4-Methylphenyl)aminocarbonylmethyl)-3-(N'-(4-methylphenyl)ureido)-1-(2-phenylethyl)indolin-2-one], in assay [1], the IC50 is 0.76 nM.

What is called inhibition in vivo is the drop in the measured response relative to a control, in per cent. The compound `CCOC(CN1C(=O)C(CC(=O)Nc2ccc(C)cc2)(NC(=O)Nc2ccc(C)cc2)c2ccccc21)OCC` (racemic) [Example 71, (RS)-1-(2,2-Diethoxyethyl)-3-((4-methylphenyl)aminocarbonylmethyl)-3-(N'-(4-methylphenyl)ureido)indolin-2-one] gave an inhibition in vivo at 10 mg/kg in the assay with gastric acid secretion of 48%. In addition, the IC50 in assay [2] came to 1.1 nM; in assay [1] it was 1.2 nM.

In the assay with gastric acid secretion, `CCOC(CN1C(=O)C(CC(=O)Nc2ccc(C)cc2)(NC(=O)Nc2ccc(C#N)cc2)c2ccccc21)OCC` (racemic) [Example 92, (RS)-3-(N'-(4-Cyanophenyl)ureido)-1-(2,2-diethoxyethyl)-3-((4-methylphenyl)aminocarbonylmethyl)indolin-2-one] yielded an inhibition in vivo at 10 mg/kg of 57%. In addition, the IC50 in assay [2] worked out at 4.3 nM; in assay [1] it was 0.9 nM.

As for `CCOC(CN1C(=O)C(CC(=O)Nc2cccc(C)c2)(NC(=O)Nc2ccc(C)cc2)c2ccccc21)OCC` (racemic) [Example 111, (RS)-1-(2,2-Diethoxyethyl)-3-((3-methylphenyl)aminocarbonylmethyl)-3-(N'-(4-methylphenyl)ureido)indolin-2-one], in the assay on gastric acid secretion, the inhibition in vivo at 10 mg/kg was determined as 69%. Also, the concentration for half-maximal inhibition (IC50) in assay [2] was found to be 5.1 nM; in assay [1], 0.35 nM.

In turn, `CCOC(CN1C(=O)C(CC(=O)Nc2ccc(Cl)cc2)(NC(=O)Nc2ccc(C)cc2)c2ccccc21)OCC` (racemic) [Example 114, (RS)-3-((4-Chlorophenyl)aminocarbonylmethyl)-1-(2,2-diethoxyethyl)-3-(N'-(4-methylphenyl)ureido)indolin-2-one] had an inhibition in vivo at 10 mg/kg in the assay on gastric acid secretion of 56%. In addition, the IC50 in assay [2] was found to be 2.4 nM; in assay [1] it was 0.64 nM.

Compound `CCOC(CN1C(=O)C(CC(=O)Nc2ccc(C)c(C)c2)(NC(=O)Nc2ccc(C)cc2)c2ccccc21)OCC` (racemic) [Example 122, (RS)-1-(2,2-Diethoxyethyl)-3-((3,4-dimethylphenyl)aminocarbonylmethyl)-3-(N'-(4-methylphenyl)ureido)indolin-2-one] displayed an inhibition in vivo at 10 mg/kg with gastric acid secretion of 62%. In addition, the values for the concentration for half-maximal inhibition (IC50) in assay [2] and in assay [1] were 2.9 nM and 0.18 nM, respectively.

Regarding `CCOC(CN1C(=O)C(CC(=O)Nc2cccc(OC)c2)(NC(=O)Nc2ccc(C)cc2)c2ccccc21)OCC` (racemic) [Example 129, (RS)-1-(2,2-Diethoxyethyl)-3-((3-methoxyphenyl)aminocarbonylmethyl)-3-(N'-(4-methylphenyl)ureido)indolin-2-one], the inhibition in vivo at 10 mg/kg in the assay with gastric acid secretion was determined as 71%. Besides, the IC50 was 3.6 nM in assay [2] and 0.39 nM in assay [1].

The compound `CCOC(CN1C(=O)C(CC(=O)Nc2ccc(N(C)C)cc2)(NC(=O)Nc2ccc(C)cc2)c2ccccc21)OCC` (racemic) [Example 130, (RS)-1-(2,2-Diethoxyethyl)-3-((4-(N,N-dimethylamino)phenyl)aminocarbonylmethyl)-3-(N'-(4-methylphenyl)ureido)indolin-2-one] had an inhibition in vivo at 10 mg/kg with gastric acid secretion of 71%. Besides, the results for the IC50 in assay [2] and in assay [1] were 4.9 nM and 2.3 nM, respectively.

Turning to `CCOC(CN1C(=O)C(CC(=O)Nc2ccc(C)cc2)(NC(=O)Nc2cccc(OC)c2)c2ccccc21)OCC` (single isomer, unassigned; (+)) [Example 188, (+)-1-(2,2-Diethoxyethyl)-3-(4-methylphenyl)aminocarbonylmethyl-3-(N'-(3-methoxyphenyl)ureido)indolin-2-one], testing at 3 mg/kg in the assay on gastric acid secretion (3 mg/kg) gave an inhibition in vivo of 76%. The IC50 in assay [2] turned out to be 0.35 nM.

For the compound `CCOC(CN1C(=O)C(NC(=O)Nc2ccc(C)cc2)(NC(=O)Nc2ccc(C)cc2)c2ccccc21)OCC` [Example 10, 1-(2,2-Diethoxyethyl)-3,3-bis(N'-(4-methylphenyl)ureido)indolin-2-one], at 10 mg/kg the inhibition in vivo with gastric acid secretion was 59%. This compound came in with an IC50 in assay [2] of 2.5 nM.

`CCOC(CN1C(=O)C(NC(=O)Nc2ccc(F)cc2)(NC(=O)Nc2ccc(F)cc2)c2ccccc21)OCC` [Example 14, 1-(2,2-Diethoxyethyl)-3,3-bis(N'-(4-fluorophenyl)ureido)indolin-2-one] yielded an inhibition in vivo at 10 mg/kg in the assay on gastric acid secretion of 49%. This compound also gave an IC50 in assay [2] of 2.2 nM.
